US7183317B2, “Compounds and methods to increase plasma HDL cholesterol levels and improve HDL functionality” (Atherogenics, Inc., priority 2004, dated 2007)
Where “and” joins values, the source holds several entries; their conditions need not be identical. Identical values can stand only once.

Legend:
[1] = test system: HepG2 cells; experiment: apoAI-HDL elevation cell-based screen (apoAI accumulation by ELISA); set-up: species or system human; settings: for increase of apoAI accumulation / circulating apoAI-HDL: 1 mM
Protocol: HepG2 cells were obtained from the American Type Culture Collection (Rockville, Md.). Fetal bovine serum (FBS) was purchased from Gibco Laboratories. Cells were cultured in minimum essential medium (MEM) containing 10% FBS, and 100 μg/mL of streptomycin, 100 unit/mL of penicillin, and 4 mM of glutamine (Gibco/BRL). Cells were grown for 2 days till they are 80% confluent in 6-well, or 12-well plates before studies. In all cases medium was changed every other day.
To measure apoAI, 96-well microtiter plates were coated with a 1:1000 diluted mixture of three monoclonal antibodies against human apoAI (A05, A17, and A44) for 2 h and incubated in succession with HDL3 (0 to 15 ng/well), sheep polyclonal anti-apoAI serum (Boehringer Mannheim), alkaline phosphatase-labeled rabbit anti-sheep (Cappel), and p-nitrophenyl phosphate (1 mg/mL in 10 mmol/L ethanolamine, 0.5 mmol/L MgCl2, pH 9.5), for 2, 1 and 1 h respectively at 37° C. The plates were washed three times between different incubations. The absorbance at 405 nm was determined by using a Bio-Rad model 550 microplate reader (Bio-Rad).
The effect of Compound A on apoAI-HDL elevation was measured using a cell-based screen assay. The hepatic model, HepG2 cells, was used to observe the accumulation of apoAI as a result of secretion and/or uptake of apoAI; both processes taking place in the liver. HepG2 cells were treated with compounds for 24 hours or 48 hours in DMEM containing 1% RSA. apoAI accumulation was measured by ELISA as described in Materials and Methods.

[2] = test system: HepG2 cells; experiment: Uptake/delivery of 3[H] cholesteryl ester-HDL to HepG2 cells; assay type: cell-based, human; settings: 12.5 μM, 50 μg/ml 3[H] CE-HDL, 3.5 h, 37° C., vs 100% delivery without compound
Protocol: ^3[H]cholesteryl Hexadecyl Ether-labeled HDL was prepared as described by Rodrigueza et al. (Rodrigueza W. V. et al. (1999) J. Biol. Chem. 274:20344–20350). 40 μCi of ^3[H]hexadecyl ether (40–60 Ci/mmol, NEN life Sciences Products) were incubated with 5 mg of HDL3 and 240 mg of heat-inactivated lipoprotein-deficient plasma, 0.01% aprotinin in a polypropylene tube sealed with nitrogen gas for 40 h at 37° C. according to the method of Terpstra et al. ^3[H]-CE enriched HDL was re-isolated by flotation ultracentrifugation and dialyzed against phosphate-buffered saline (PBS). To perform CE uptake studies, HepG2 cells, seeded in 6 or 12 well plates were grown for 2 days till 80% confluent and, then treated with compounds in 1% RSA-DMEM medium for 24 h. The next day, cells were treated with 12.5 μM compounds and 50 μg/mL of ^3[H]-CE HDL for 3.5 h at 37° C. After incubation, cells were washed 4 times with PBS/BSA and 2 times with PBS, followed by addition of 0.1 N NAOH. Cells were collected, and radioactivity was measured in counts per minute and expressed as percent of ^3[H]-CE delivered to cells.
HepG2 cells were cultured as described above and incubated with 50 μg/ml of ^3[H] CE-HDL particles and compounds for 3.5 h at 37° C. […] CE delivery to HepG2 cells resulting from treatment with indicated compounds compared to a 100% delivery in the absence of any compound. […] CE, as also described by Jin et al. (Jin, F. et al. (1997) Atheroscler. Thromb Vasc Biol. 17: 2020–2028).

[3] = test system: SR-BI/II receptors; experiment: 3[H] CE delivery to HepG2 cells with anti SR-BI/II antibody blocking; assay type: cell-based
Protocol: It was important to discern whether or not Compound A was acting through the SR-BI/II receptors to increase the delivery of cholesterol. HepG2 cells were incubated with anti-mouse SR-BI/II antibodies for 45 min. Compound A was then added, and the cells were incubated with 30 μg/ml of ^3[H] CE-HDL for 3.5 h at 37° C. Anti-mouse SR-BI/II antibodies (1.0 mg/mL) reduced delivery of ^3[H] CE by 76%, while Compound A increase the delivery of ^3[H] CE to HepG2 cells by 56%. […] CE to cells provoked by Compound A. Further the anti SR-BI/II antibodies decreased the delivery of ^3[H] CE from 156% to 28% (FIG. 4).

[4] = test system: hypercholesterolemic hamsters; assay type: in vivo; settings: two weeks; for percent increase of HDL cholesterol: 150 mg/kg/d in chow; for percent increase of HDL cholesterol / percent lowering of HDLc: compared to untreated controls
From the text: Male Golden Syrian hamsters weighing 110–120 g were obtained from Charles River Laboratories (Wilmington, Mass.). Hamsters were housed individually with wood chip bedding and soft nesting material with lights on a 6 A.M. and off at 6 p.m. Upon arrival the hamsters were acclimated for three days on standard rodent chow and water (Purina rodent chow 5001) ad libitum. Prior to dosing, the hamsters were made hypercholesterolemic by feeding them a powdered diet supplemented with 0.5% cholesterol and 10% coconut oil (Harlan Teklad diet #97235) for one week. Water was added to the powdered chow to form a paste and the chow paste rolled into balls with each animal receiving 20 g of chow paste per day in stainless steel bowls. Chow intake was recorded daily. Body weights were recorded after one week and at the end of the end of the study. Hamsters were distributed into treatment groups after the one-week pretreatment period such that each group had similar average body weights.
Compound A homogenized in methylcellulose/Tween-20 using a polytron PT2100 homogenizer (Brinkman) before adding it to the high cholesterol chow paste and administered as an admixture at the same time each morning for two weeks. At the end of the treatment period the hamsters were fasted in the late afternoon on the day prior to blood collection. Fasting was achieved by transferring the hamsters to clean cages and removing chow stored in cheek pouches. Hamsters were anesthetized with ketamine/rompun solution. When unresponsive to toe pinch and still respiring, blood was collected via cardiac puncture from which plasma was separated and frozen at −80° C.
Lipoproteins were isolated from whole plasma by Fast Phase Liquid Chromatography (FPLC). Cholesterol and triglyceride concentrations in the different lipoprotein fractions were determined by enzymatic methods using a CX-5 chemical analyzer and standard Beckman reagents.
A Dunnetts test was used to compare the experimental and control groups. P<0.05 was considered significant.
The effect of Compound A on HDLc levels was assessed using hypercholesterolemic hamsters. Male Golden Syrian hamsters were fed as described in Materials and Methods. Compound A homogenized as described above before adding it to the high cholesterol chow paste and administered as an admixture at the same time each morning for two weeks. At the end of the treatment period the hamsters were fasted in the late afternoon on the day prior to blood collection. Hamsters were anesthetized with ketamine/rompun solution. When unresponsive to toe pinch and still respiring, blood was collected via cardiac puncture from which plasma was separated and frozen at −80° C.
LDL cholesterol was not affected. Lipid profiles were obtained according to the method published by Lee, A. and coworkers (W. Innis-Whitehouse, X. Li, V. Brown and N. Lee., J. Lipid Res. 39, 679 (1998)).

[5] = test system: HDL holoprotein; experiment: Hepatic clearance/uptake of HDL holoprotein; assay type: cell-based
From the text: The trichloroacetic-precipitable labeled apoAI-HDL in the conditioned medium represents degraded labeled apoAI-HDL. After washing and detaching, cells are centrifuged. Labeled apoAI-HDL in the cellular fraction represents internalized HDL holoprotein; whereas, label in the supernatant represents cell surface bound apoAI-HDL that has been dissociated. Increased amounts of labeled HDL in cells treated with compounds versus cells not treated with compounds indicates increased degradation, internalization, or binding to the cell surface. Compounds are selected which decrease the amount of apoAI-HDL label in the cellular fraction of the cells contacted with a test compound compared to the amount of label in the cellular fraction of the cells not contacted with the test compound. […] Label in the conditioned medium represents degraded labeled-HDL. After washing and detaching, cells are centrifuged. Label in the cellular fraction represents internalized HDL holoprotein; whereas, label in the supernatant represents cell surface bound apoAI-HDL that has been dissociated. Increased amounts of label in cells treated with compounds versus cells not treated with compounds indicates increased degradation, internalization, or binding of apoAI-HDL to the cell surface. […]

[6] = test system: apoAI; experiment: apoAI synthesis; assay type: cell-based
[7] = 12.5 μM, compared to control (absence of compounds)

CC(C)(Sc1cc(C(C)(C)C)c(O)c(C(C)(C)C)c1)Sc1cc(C(C)(C)C)c(OCCCCOS(=O)(=O)O)c(C(C)(C)C)c1 [B, Sulfuric acid, mono-(4-{2,6-di-tert-butyl-4-[1-(3,5-di-tert-butyl-4-hydroxy-phenyl-sulfanyl)-1-methylethylsulfanyl]-phenoxy}-butyl)ester]
percent increase of apoAI (apoAI-HDL) accumulation [1, 7]: ~30%

CC(C)(Sc1cc(C(C)(C)C)c(O)c(C(C)(C)C)c1)Sc1cc(C(C)(C)C)c(OC[C@@H](O)[C@@H](O)[C@@H](O)C(=O)O)c(C(C)(C)C)c1 [Compound A, 5-[4-[1-[(3,5-bis(1,1-dimethylethyl)-4-hydroxyphenyl)thio]-1-methylethyl]thio-2,6-bis(1,1-dimethylethyl)phenoxy]-2(R),3(R),4(R)-trihydroxypentanoic acid]
percent increase of 3[H]CE delivery to HepG2 cells [2]: 109% and 108% | percent increase of 3[H]CE delivery to HepG2 cells ([3]; 30 μg/ml 3[H] CE-HDL, 3.5 h, 37° C., no antibody): 56% | delivery of 3[H] CE, percent of control ([3]; Compound A in presence of anti SR-BI/II antibodies): 28% | delivery of 3[H] CE, percent of control ([3]; Compound A without antibodies): 156% | percent increase of HDL cholesterol [4]: 30% | effect on LDL cholesterol ([4]; 150 mg/kg/d): not affected | percent increase of apoAI (apoAI-HDL) accumulation [1, 7]: 122.5% and 122% | percent increase of apoAI (apoAI-HDL) accumulation ([1]; 25 μM, compared to control): 132.5% and 132%

CC(C)(Sc1cc(C(C)(C)C)c(O)c(C(C)(C)C)c1)Sc1cc(C(C)(C)C)c(OCC(O)CNCC(=O)O)c(C(C)(C)C)c1 (centres unmarked) [Compound C, Glycine, N-[3-[4-[1-[[3,5-bis(1,1-dimethylethyl)-4-hydroxyphenyl]thio]-methylethyl]thio-2,6-bis(1,1-dimethylethyl)phenoxy]-2-hydroxypropyl]]
percent increase of HDL cholesterol [4]: 40% | percent increase of apoAI (apoAI-HDL) accumulation [1, 7]: ~15%

CC(C)(Sc1cc(C(C)(C)C)c(O)c(C(C)(C)C)c1)Sc1cc(C(C)(C)C)c(OC[C@H]2OC(O)[C@H](O)[C@@H](O)[C@@H]2O)c(C(C)(C)C)c1 (some centres unmarked) [Compound D]
percent lowering of HDLc ([4]; 150 mg/kg/d): ~80% | percent decrease of apoAI (apoAI-HDL) accumulation ([1]; 12.5 μM, compared to control): about 10%

CC(C)(Sc1cc(C(C)(C)C)c(O)c(C(C)(C)C)c1)Sc1cc(C(C)(C)C)c(OC[C@@H](O)[C@H](O)[C@H](O)[C@H](O)CO)c(C(C)(C)C)c1 [Compound E]
percent lowering of HDLc ([4]; 150 mg/kg/d): ~40% | percent decrease of apoAI (apoAI-HDL) accumulation ([1]; 12.5 μM, compared to control): about 10%

O=C(O)c1cccnc1 [Niacin, Nicotinic acid, reference compound]
increase of apoAI accumulation / circulating apoAI-HDL [1]: increased | increase of apoAI accumulation / circulating apoAI-HDL ([1]; listed as niacin): 10%

CC(C)(Sc1cc(C(C)(C)C)c(O)c(C(C)(C)C)c1)Sc1cc(C(C)(C)C)c(O)c(C(C)(C)C)c1 [Probucol, 4,4′-(isopropylidenedithio)bis(2,6-di-tert-butylphenol), reference compound]
percent increase of 3[H]CE delivery to HepG2 cells [2]: 29% | percent increase of 3[H]CE delivery to HepG2 cells ([2]; listed as probucol): increased | HDL holoprotein uptake [5]: reduced | effect on synthesis of apoAI (newly synthesized apoAI) [6]: reduced | percent decrease of apoAI (apoAI-HDL) accumulation ([1]; 12.5 μM, compared to control): 23%

CC1=C(/C=C/C(C)=C/C=C/C(C)=C/C(=O)O)C(C)(C)CCC1 [Retinoic acid, reference compound]
percent increase of apoAI accumulation ([1]; 10 μM, positive control): 53.6%
